Reference: ChEMBL document CHEMBL1153387 (J Med Chem, 2009)
Calls of active or inactive are those of the source. The calls are words filed in the database; no cut-off is given here. Starred links: 1 amine or outer side, 2 acyl side, 3 side chain; linkers in the order of their positions; H or OH if unused. Non-standard residues stand in square brackets, D forms with d. Residues, ends and D or L forms follow the SMILES beside them. *: point of attachment. NMeβ3hLys = CN([C@@H](CCCCN)CC(=O)[*:2])[*:1]; Pentanoyl(5-guanidino) = NC(N)=NCCCCC(=O)*; X1 = [N-]=[N+]=N[C@@H](CCCNC(=N)N)C(=O)*; NMeR = CN[C@@H](CCCNC(=N)N)C(=O)O; αMeR = C[C@](N)(CCCNC(=N)N)C(=O)O; Tle = CC(C)(C)[C@H](N)C(=O)O; β3hK = NCCCC[C@H](N)CC(=O)O; Ahp = NCCCCCCC(=O)O

Key:
[1] = test system: Serum; experiment: Metabolic stability in human serum assessed as compound degradation rate at 1 mM by MALDI-TOF mass spectrometry assay; format: ADME, cell-free; details: 1000 µM
[2] = molecular target: T1, Neurotensin receptor type 1 (Homo sapiens, UniProt P30989); experiment: Displacement of [125I]I-Tyr(3)NT from human NTR1
[3] = Metabolic stability in human serum assessed as half time of disappearance at 1 mM by MALDI-TOF mass spectrometry assay; format: ADME, cell-free; details: read-out: T50
[4] = Metabolic stability in rat serum assessed as half time of disappearance at 1 mM by MALDI-TOF mass spectrometry assay; format: ADME, cell-free; details: read-out: T50
[5] = molecular target: T1, Neurotensin receptor type 1; experiment: Agonist activity at NTR1 in human HT-29 cells assessed as increase in intracellular calcium concentration by FLIPR assay; format: functional, cell-based
[6] = test system: Serum; experiment: Metabolic stability in rat serum assessed as compound degradation rate at 1 mM by MALDI-TOF mass spectrometry assay; format: ADME, cell-free; details: 1000 µM
[7] = molecular target: T1, Neurotensin receptor type 1; experiment: Agonist activity at NTR1 in human HT-29 cells assessed as increase in intracellular calcium concentration in presence of NTR1 antagonist SR-48692 by FLIPR assay; format: functional, cell-based
[8] = test system: Rattus norvegicus; experiment: Hypothermic activity in Sprague-Dawley rat assessed as decrease in core body temperature at 5 mg/kg, ip at time of maximal body temperature decrease; format: functional; details: route intraperitoneal
[9] = test system: Rattus norvegicus; experiment: Hypothermic activity in Sprague-Dawley rat assessed as time duration of maximal body temperature decrease at 5 mg/kg, ip; format: functional; details: route intraperitoneal
[10] = molecular target: T1, Neurotensin receptor type 1; experiment: Binding affinity to human NTR1

T1 sequence (P30989 whole entry): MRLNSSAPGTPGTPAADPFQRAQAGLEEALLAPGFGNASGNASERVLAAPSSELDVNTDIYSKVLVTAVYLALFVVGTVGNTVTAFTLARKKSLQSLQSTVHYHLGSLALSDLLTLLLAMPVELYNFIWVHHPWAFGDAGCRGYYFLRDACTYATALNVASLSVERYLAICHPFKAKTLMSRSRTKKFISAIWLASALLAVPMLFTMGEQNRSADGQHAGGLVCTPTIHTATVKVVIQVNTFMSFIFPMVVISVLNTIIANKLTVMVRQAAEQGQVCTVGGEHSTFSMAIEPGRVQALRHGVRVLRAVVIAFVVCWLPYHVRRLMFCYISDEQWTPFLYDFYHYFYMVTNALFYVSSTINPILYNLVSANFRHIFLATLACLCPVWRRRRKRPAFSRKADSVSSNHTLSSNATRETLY

Activity [1]	IC50 [2]	Ki [2]	half-life at 1000 µM [3]	half-life at 1000 µM [4]	EC50 [5]	Activity [6]	Activity [7]	Structure (SMILES)	Activity [8]	Time [9]	Ki [10]
1.65 µmol/min	0.97 nM	0.73 nM	5.05 h	2.35 h	0.78 nM	3.53 µmol/min		CC[C@@H](C)[C@H](NC(=O)[C@H](Cc1ccc(O)cc1)NC(=O)[C@@H]1CCCN1C(=O)[C@H](CCCN=C(N)N)NC(=O)[C@H](CCCN=C(N)N)N=[N+]=[N-])C(=O)N[C@@H](CC(C)C)C(=O)O			
33.4 µmol/min	10.8 nM	8.07 nM	0.25 h	0.21 h	6.21 nM	39.9 µmol/min	inactive	CC(C)C[C@H](NC(=O)[C@@H](NC(=O)[C@H](Cc1ccc(O)cc1)NC(=O)[C@@H]1CCCN1C(=O)[C@H](CCCNC(=N)N)NC(=O)C[C@@H](N)CCCCN)C(C)(C)C)C(=O)O (H-[β3hK]RPY[Tle]L-OH)	-1.53 °C	90 min	
0.07 µmol/min	140 nM	105 nM	120 h	67.8 h	151 nM	0.123 µmol/min	inactive	CC(C)C[C@H](NC(=O)[C@@H](NC(=O)[C@H](Cc1c[nH]c2ccccc12)NC(=O)[C@@H]1CCCN1C(=O)[C@H](CCCCN)NC(=O)[C@H](CCCNC(=N)N)N=[N+]=[N-])C(C)(C)C)C(=O)O (X1-KPW[Tle]L-OH)	-4.29 °C	240 min	
0.701 µmol/min			11.9 h	3.5 h		2.38 µmol/min		CC[C@H](C)[C@H](NC(=O)[C@H](Cc1ccc(O)cc1)NC(=O)[C@@H]1CCCN1C(=O)[C@H](CCCNC(=N)N)NC(=O)[C@H](CCCNC(=N)N)NC(C)=O)C(=O)N[C@@H](CC(C)C)C(=O)O			
2.17 µmol/min	2.68 nM	2.01 nM	3.83 h	1.45 h	1.85 nM	5.74 µmol/min		CC[C@@H](C)[C@H](NC(=O)[C@H](Cc1ccc(O)cc1)NC(=O)[C@@H]1CCCN1C(=O)[C@H](CCCNC(=N)N)NC(=O)CCCCNC(=N)N)C(=O)N[C@@H](CC(C)C)C(=O)O	-0.99 °C	120 min	
0.146 µmol/min	27 nM	20.3 nM	57.2 h	71.8 h	7.96 nM	0.117 µmol/min		CN[C@@H](CCCCN)CC(=O)N[C@@H](CCCN=C(N)N)C(=O)N1CCC[C@H]1C(=O)N[C@@H](Cc1ccc(O)cc1)C(=O)N[C@H](C(=O)N[C@@H](CC(C)C)C(=O)O)C(C)(C)C (NMeβ3hLys-RPY[Tle]L-OH)			
0.593 µmol/min	0.383 nM	0.29 nM	14 h	4.33 h	0.853 nM	1.92 µmol/min		CC[C@@H](C)[C@H](NC(=O)[C@H](Cc1ccc(O)cc1)NC(=O)[C@@H]1CCCN1C(=O)[C@H](CCCNC(=N)N)NC(=O)[C@H](CCCNC(=N)N)NC)C(=O)N[C@@H](CC(C)C)C(=O)O	-1.55 °C	120 min	
0.444 µmol/min			18.8 h	3.65 h		2.28 µmol/min		CC[C@@H](C)[C@H](NC(=O)[C@H](Cc1ccc(O)cc1)NC(=O)[C@@H]1CCCN1C(=O)[C@H](CCCNC(=N)N)NC(=O)[C@@](C)(N)CCCNC(=N)N)C(=O)N[C@@H](CC(C)C)C(=O)O	-0.28 °C	150 min	
							inactive	CC[C@@H](C)[C@H](NC(=O)[C@H](Cc1ccc(O)cc1)NC(=O)[C@@H]1CCCN1C(=O)[C@H](CCCNC(=N)N)NC(=O)[C@H](CCCNC(=N)N)N=[N+]=[N-])C(=O)N[C@@H](CC(C)C)C(=O)O	-1 °C	240 min	
0.064 µmol/min	2900 nM	2170 nM	132 h	87.8 h	1860 nM	0.095 µmol/min		CC(C)C[C@H](NC(=O)[C@@H](NC(=O)[C@H](Cc1c[nH]c2ccccc12)NC(=O)[C@@H]1CCCN1C(=O)[C@H](CCCCN)NC(=O)[C@@](C)(N)CCCNC(=N)N)C(C)(C)C)C(=O)O (H-[αMeR]KPW[Tle]L-OH)	-4.28 °C	120 min	
31.8 µmol/min	403 nM	303 nM	0.263 h	0.225 h	217 nM	37 µmol/min		CC(C)C[C@H](NC(=O)[C@@H](NC(=O)[C@H](Cc1c[nH]c2ccccc12)NC(=O)[C@@H]1CCCN1C(=O)[C@H](CCCCN)NC(=O)[C@@H](N)CCCN=C(N)N)C(C)(C)C)C(=O)O (H-RKPW[Tle]L-OH)			

The remaining lines, values behind:

Structure (SMILES)	Activity [1]	IC50 [2]	Ki [2]	half-life at 1000 µM [3]	half-life at 1000 µM [4]	EC50 [5]	Activity [6]	Activity [7]	Activity [8]	Time [9]	Ki [10]
CC(C)C[C@H](NC(=O)[C@@H](NC(=O)[C@H](Cc1ccc(O)cc1)NC(=O)[C@@H]1CCCN1C(=O)[C@H](CCCNC(=N)N)NC(=O)CCCCCCN)C(C)(C)C)C(=O)O (H-[Ahp]RPY[Tle]L-OH)	0.204 µmol/min	3.99 nM	2.99 nM	41 h	74.8 h	25.8 nM	0.111 µmol/min		-2.58 °C	90 min	
CC[C@H](C)[C@H](NC(=O)[C@H](Cc1ccc(O)cc1)NC(=O)[C@@H]1CCCN1C(=O)[C@H](CCCNC(=N)N)NC(=O)[C@@H](N)CCCNC(=N)N)C(=O)N[C@@H](CC(C)C)C(=O)O	29.6 µmol/min			0.282 h	0.167 h		49.8 µmol/min				
CC(C)C[C@H](NC(=O)[C@@H](NC(=O)[C@H](Cc1c[nH]c2ccccc12)NC(=O)[C@@H]1CCCN1C(=O)[C@H](CCCCN)NC(=O)[C@@H](N)CCCNC(=N)N)C(C)(C)C)C(=O)O (H-RKPW[Tle]L-OH)									-2.11 °C	120 min	
CN[C@@H](CCCNC(=N)N)C(=O)N[C@@H](CCCCN)C(=O)N1CCC[C@H]1C(=O)N[C@@H](Cc1c[nH]c2ccccc12)C(=O)N[C@H](C(=O)N[C@@H](CC(C)C)C(=O)O)C(C)(C)C (H-[NMeR]KPW[Tle]L-OH)	0.068 µmol/min	240 nM	180 nM	123 h	162 h	200 nM	0.052 µmol/min		-5.52 °C	270 min	95 nM
COc1cccc(OC)c1-c1cc(C(=O)NC2(C(=O)O)C3CC4CC(C3)CC2C4)nn1-c1ccnc2cc(Cl)ccc12 (stereo not given) [REMINERTANT]		0.99 nM									
CC[C@H](C)[C@H](NC(=O)[C@H](Cc1ccc(O)cc1)NC(=O)[C@@H]1CCCN1C(=O)[C@H](CCCN=C(N)N)NC(=O)[C@@H](N)CCCN=C(N)N)C(=O)N[C@@H](CC(C)C)C(=O)O									-0.55 °C	300 min	
CC(=O)N[C@@H](CCCCN)CC(=O)N[C@@H](CCCNC(=N)N)C(=O)N1CCC[C@H]1C(=O)N[C@@H](Cc1ccc(O)cc1)C(=O)N[C@H](C(=O)N[C@@H](CC(C)C)C(=O)O)C(C)(C)C (Ac-[β3hK]RPY[Tle]L-OH)									-3.54 °C	150 min	
CC(=O)N[C@@H](CCCNC(=N)N)C(=O)N[C@@H](CCCCN)C(=O)N1CCC[C@H]1C(=O)N[C@@H](Cc1c[nH]c2ccccc12)C(=O)N[C@H](C(=O)N[C@@H](CC(C)C)C(=O)O)C(C)(C)C (Ac-RKPW[Tle]L-OH)	0.068 µmol/min	863 nM	647 nM	124 h	94.3 h	764 nM	0.089 µmol/min		-4.3 °C	270 min	
CC[C@H](C)[C@H](NC(=O)[C@H](Cc1ccc(O)cc1)NC(=O)[C@@H]1CCCN1C(=O)[C@H](CCCN=C(N)N)NC(=O)[C@H](CCCN=C(N)N)NC(C)=O)C(=O)N[C@@H](CC(C)C)C(=O)O									-0.71 °C	90 min	
CN[C@@H](CCCCN)CC(=O)N[C@@H](CCCNC(=N)N)C(=O)N1CCC[C@H]1C(=O)N[C@@H](Cc1ccc(O)cc1)C(=O)N[C@H](C(=O)N[C@@H](CC(C)C)C(=O)O)C(C)(C)C (NMeβ3hLys-RPY[Tle]L-OH)									-3.68 °C	180 min	
CC(C)C[C@H](NC(=O)[C@@H](NC(=O)[C@H](Cc1c[nH]c2ccccc12)NC(=O)[C@@H]1CCCN1C(=O)[C@H](CCCCN)NC(=O)CCCCNC(=N)N)C(C)(C)C)C(=O)O ({Pentanoyl(5-guanidino)}-KPW[Tle]L-OH)	0.081 µmol/min	842 nM	631 nM	103 h	108 h	783 nM	0.078 µmol/min		-5.02 °C	240 min	
CC(=O)N[C@@H](CCCCN)CC(=O)N[C@@H](CCCN=C(N)N)C(=O)N1CCC[C@H]1C(=O)N[C@@H](Cc1ccc(O)cc1)C(=O)N[C@H](C(=O)N[C@@H](CC(C)C)C(=O)O)C(C)(C)C (Ac-[β3hK]RPY[Tle]L-OH)	0.153 µmol/min	181 nM	136 nM	54.5 h	57 h	57.7 nM	0.146 µmol/min				
